Values joined by “and” are separate entries in the source; they are usually repeats but may differ in a detail not shown here. Identical values can stand only once. Like-named read-outs stand apart in the source and are kept apart here.

Assay type in all cases: cell-based
Data set [1] relates to Plasmodium falciparum Dd2. Nature of the data set: Antiplasmodial pLDH assay, chloroquine-resistant strain Dd2. The note with it: for Resistance index (RI): RI = IC50 Dd2 / IC50 D10.
The test system of data set [2] is Plasmodium falciparum D10. As to the kind of experiment: Antiplasmodial pLDH assay, chloroquine-sensitive strain D10.
Data set [3] has as its system Chinese Hamster Ovarian (CHO) cell line. As to the kind of experiment: Cytotoxicity MTT assay. The note with it: for CHO Cell line (IC50) / IC50: triplicate; for Selectivity index (SI): SI = IC50 CHO / IC50 D10; for IC50: read-out: CHO Cell line (IC50). Background: Tetrazolium dyes change colour on reduction, which living cells bring about.
Setting [4] is: Plasmodium falciparum, DD2, read-out: Plasmodium falciparum Dd2: IC50.
Setting [5] is: Plasmodium falciparum, D10, read-out: Plasmodium falciparum D10 (IC50).
[6] abbreviates: CQ-resistant Dd2 strain, pLDH, triplicate, ten point dose response.
Where [7] appears, read: read-out: Plasmodium falciparum Dd2: IC50, CQ-resistant Dd2 strain, pLDH, triplicate, ten point dose response.
The mark [8] stands for this setting: CQ-sensitive D10 strain, pLDH, triplicate, ten point dose response.
[9] abbreviates: read-out: Plasmodium falciparum D10 (IC50), CQ-sensitive D10 strain, pLDH, triplicate, ten point dose response.

A word on the IC50: it is the concentration at which inhibition is half-maximal. As for `CCN(CC)CCCC(C)Nc1ccnc2cc(Cl)ccc12` (stereo not drawn) [Chloroquine, Chloroquine diphosphate, reference compound], the IC50 in data set [1] (setting [4]) was 0.07 µg/mL and 230 nM; in data set [2] (setting [5]), 0.01 µg/mL and 30 nM.
On to `O[C@@H]1c2ccccc2-c2c3c(cc4c2[C@@H]1NCC4)OCO3` [Compound 2, norushinsunine], for which the “Cytotoxicity (in words)” value in data set [3] was “no observable cytotoxicity”. The “CHO Cell line (IC50)” value in data set [3] (CHO cells, MTT) is more than 100 µg/mL. The “Selectivity index (SI)” value in data set [3] was more than 3. For the same molecule, the IC50 was more than 300 µM in data set [3] (CHO cells, MTT); 110 ± 8.1 µM in data set [1] (setting [7]); 105 ± 13.9 µM in data set [2] (setting [9]). Besides, in data set [1] (setting [6]), the “Plasmodium falciparum Dd2: IC50” value is 30.9 ± 2.3 µg/mL. For the same molecule, in data set [1], the “Resistance index (RI)” value is 1.0. Moreover, the “Plasmodium falciparum D10 (IC50)” value in data set [2] (setting [8]) came out at 29.6 ± 3.9 µg/mL.
Regarding `COc1cc2c(cc1OC)-c1c(OC)c(OC)cc3c1[C@H](C2)NCC3` [Compound 3, norglaucine], in data set [3] (CHO cells, MTT), the “Cytotoxicity (in words)” value was “no observable cytotoxicity”, the “CHO Cell line (IC50)” value was more than 100 µg/mL and the half-maximal inhibitory concentration (IC50) is more than 300 µM. Further, in data set [3], the “Selectivity index (SI)” value was more than 5. Moreover, in data set [1] (setting [6]), the “Plasmodium falciparum Dd2: IC50” value was determined as 32.2 ± 1.3 µg/mL. Further, the “Resistance index (RI)” value in data set [1] was 1.5. In data set [1] (setting [7]), the IC50 amounted to 94.3 ± 3.8 µM. Also, in data set [2] (setting [8]), the “Plasmodium falciparum D10 (IC50)” value was 22.0 ± 2.8 µg/mL. For the same molecule, the half-inhibitory concentration (IC50) in data set [2] (setting [9]) turned out to be 64.4 ± 8.2 µM.
In the case of `O=C1c2ccccc2-c2c3c(cc4ccnc1c24)OCO3` [Compound 4, liriodenine], in data set [3], the “Selectivity index (SI)” value came to 2.0. Moreover, the IC50 in data set [1] (setting [4]) was 7.9 µg/mL and 28.7 µM; in data set [2] (setting [5]) it was 4.1 µg/mL and 14.9 µM. For the same molecule, the “Resistance index (RI)” value in data set [1] is recorded as 1.9.
For the molecule `c1ccc2c(c1)C[C@H]1NCCc3cc4c(c-2c31)OCO4` [Compound 5, anonaine], the “Selectivity index (SI)” value in data set [3] is reported as more than 83. The IC50 in data set [1] (setting [4]) is 5.2 µg/mL and 19.6 µM; in data set [2] (setting [5]), 1.2 µg/mL and 4.5 µM. For the same molecule, the “Resistance index (RI)” value in data set [1] amounted to 4.2.
Regarding `COc1cc2c(cc1OC)-c1c(OC)c(OC)cc3ccnc(c13)C2=O` [Compound 6, oxoglaucine], the “Cytotoxicity (in words)” value in data set [3] (CHO cells, MTT) is recorded as “no observable cytotoxicity”. For the same molecule, the “Selectivity index (SI)” value in data set [3] is more than 11. Also, the IC50 in data set [1] (setting [4]) is 20.8 µg/mL and 59.2 µM; in data set [2] (setting [5]), 9.1 µg/mL and 25.9 µM. The “Resistance index (RI)” value in data set [1] is 2.3.
As for `C=C1C(=O)O[C@H]2[C@H]1[C@H](OC(C)=O)CC(=C)[C@H](OO)CC[C@@]1(C)O[C@H]21` [Compound 7, peroxyferolide], the “CHO Cell line (IC50)” value in data set [3] (CHO cells, MTT) was determined as 3.2 ± 0.6 µg/mL. The “Selectivity index (SI)” value in data set [3] is recorded as 0.5. In addition, the IC50 in data set [3] (CHO cells, MTT) amounted to 9.5 ± 1.8 µM; in data set [1] (setting [7]), 12.7 ± 3.5 µM; in data set [2] (setting [9]), 18.3 ± 0.3 µM. Also, the “Plasmodium falciparum Dd2: IC50” value in data set [1] (setting [6]) was determined as 4.3 ± 1.2 µg/mL. In addition, the “Resistance index (RI)” value in data set [1] is 0.7. The “Plasmodium falciparum D10 (IC50)” value in data set [2] (setting [8]) worked out at 6.2 ± 0.1 µg/mL.
With `C=C1C(=O)O[C@@H]2C3O[C@]3(C)CC/C=C(\C)C[C@@H](OC(C)=O)[C@@H]12` (stereo partly drawn) [Compound 8, lipiferolide], in data set [3] (CHO cells, MTT), the “CHO Cell line (IC50)” value stood at 1.4 ± 0.2 µg/mL. In data set [3], the “Selectivity index (SI)” value is reported as 0.8. In addition, the IC50 worked out at 4.6 ± 0.7 µM in data set [3] (CHO cells, MTT); 7.5 ± 0.3 µM in data set [1] (setting [7]); 5.9 ± 2.3 µM in data set [2] (setting [9]). In addition, the “Plasmodium falciparum Dd2: IC50” value in data set [1] (setting [6]) is 2.3 ± 0.1 µg/mL. The “Resistance index (RI)” value in data set [1] stood at 1.3. Besides, the “Plasmodium falciparum D10 (IC50)” value in data set [2] (setting [8]) amounted to 1.8 ± 0.7 µg/mL.
Turning to asimilobine [Compound 1], in data set [3] (CHO cells, MTT), the “CHO Cell line (IC50)” value is more than 100 µg/mL. In data set [3], the “Selectivity index (SI)” value is more than 83. The IC50 is more than 300 µM in data set [3] (CHO cells, MTT); 21.7 ± 6.3 µM in data set [1] (setting [7]); 4.5 ± 0.3 µM in data set [2] (setting [9]). Further, the “Plasmodium falciparum Dd2: IC50” value in data set [1] (setting [6]) turned out to be 5.8 ± 1.3 µg/mL. In addition, in data set [1], the “Resistance index (RI)” value is reported as 4.8. Further, the “Plasmodium falciparum D10 (IC50)” value in data set [2] (setting [8]) was found to be 1.2 ± 0.1 µg/mL.
